Results from article PMC12479633, “A Phase IIa, Single-Blind, Placebo-Controlled, Parallel-Group Study to Assess Safety, Tolerability, and Pharmacokinetics/Pharmacodynamics of Brensocatib in Adults with Cystic Fibrosis” (Clinical Pharmacokinetics, 2025).
Read-outs that look alike come from different tables or passages of the source. Marks after values point to notes of the source that are not given here.

How the values were obtained:
[1] = Plasma pharmacokinetics of brensocatib in adults with CF, once-daily oral dosing for 28 days (noncompartmental analysis); type: in vivo, human; settings: for AUC0–24 / D, geometric mean / AUClast / D, geometric mean / Cmax / D, geometric mean: dose-normalized
Description: This was a phase IIa, single-blind, randomized, placebo-controlled trial with a parallel-group, multiple-dose design aimed at evaluating the PK, PD, safety, and tolerability of brensocatib in adults with CF (NCT05090904).
Participants were assigned to receive a once-daily dose of brensocatib (10 mg, 25 mg, or 40 mg) or placebo for 28 days.
Plasma PK samples were collected on days 1 (at predose and 0.5, 1, 2, 4, 6, 8, and 24 h postdose), 14 (at predose and 2 h postdose), and 28 (at predose and 0.5, 1, 2, 4, 6, 8, 24, and 168 h postdose). The concentration of brensocatib in the plasma samples was analyzed using a validated liquid chromatography with tandem mass spectrometry method at an external service provider with a quantification range of 0.25–150 ng/mL. The overall intra- and inter-batch precision and accuracy were −2.7 to 2.0% and −1.8 to 0.8%, respectively. The long-term stability was established in human plasma for 346 days at −70 °C. The validation method details were published internally and stored within Insmed’s internal document repository.
Descriptive statistics for continuous variables were calculated. Categorical variables were summarized by counts and by percentage of participants in the corresponding categories. No formal hypothesis was tested. Changes from baseline values were calculated and presented for both safety and efficacy data at each visit, including the percent change from baseline. PK parameters for brensocatib were assessed using noncompartmental analysis via Phoenix® WinNonlin® version 8.2 or later. SAS version 9.4 or higher was employed to prepare PK outputs.
Analysis of dose dependency for brensocatib Cmax, AUC0–24, and area under the concentration–time curve from time 0 to last measurable concentration (AUClast) after single-dose administration and at steady state (day 28) were performed using a power law model. Dose normalization of Cmax, AUC0–24, and AUClast was performed only when a linear and dose-dependent trend was observed.

[2] = test system: proteinase 3 (PR3); test: PR3 activity in sputum of adults with CF; type: in vivo, human
Text: If a participant experienced an intercurrent event, defined as use of antibiotics during an acute event that could influence NSP levels, the data were not included in the PD analysis. In assessing treatment-emergent adverse events (TEAEs), the “while-on-treatment” strategy was implemented, which encompassed the 28-day period following the final dose of study drug. With this strategy, data collected prior to the occurrence of the intercurrent event, that is, to discontinuation of brensocatib, were included in the analysis.
On the basis of the comparability of PK between participants with and without concomitant use of CFTR modulators, NSP activity (NE, CatG, PR3) in blood and sputum was analyzed using the combined data sets without the CFTR modulator stratum.

[3] = test system: CYP3A; design: method as in PMID 35411669; settings: cited from earlier work
[4] = 10 mg QD, Day 28, n = 8, mean (CV%)
[5] = 25 mg QD, Day 28, n = 7, mean (CV%)
[6] = 40 mg QD, Day 28, n = 8, mean (CV%)
[7] = 40-mg dose compared to 10 mg, day 28
[8] = 40-mg dose compared to 25 mg, day 28
[9] = Day 1, with CFTR modulator, n 17
[10] = Day 1, without CFTR modulator, n 7
[11] = Day 28, with CFTR modulator, n 16
[12] = Day 28, without CFTR modulator, n 6
[13] = human, plasma, oral, 10 mg QD, Day 28, n = 8, mean (CV%)
[14] = human, plasma, oral, 25 mg QD, Day 28, n = 7, mean (CV%)
[15] = human, plasma, oral, 40 mg QD, Day 28, n = 8, mean (CV%)

Cn1c(=O)oc2ccc(-c3ccc(C[C@@H](C#N)NC(=O)[C@@H]4CNCCCO4)cc3)cc21 [Brensocatib]
Ctrough ([1]; 10 mg QD, Day 1 column, presented for day 2, n = 8, mean (CV%)): 46.3 (92.2) ng/mL
CL/F [1, 4]: 9.91 (28.6) L/h
Cmax [1, 4]: 90.1 (31.0) ng/mL
Ctrough [1, 4]: 27.2 (66.1) ng/mL
Rac(AUC0–24), accumulation ratio based on AUC0–24 [1, 4]: 1.38 (32.2)
Rac(Cmax), accumulation ratio based on Cmax [1, 4]: 1.42 (22.6)
Cmax ([1]; 25 mg QD, Day 1, n = 8, mean (CV%)): 140 (24.1) ng/mL
Ctrough ([1]; 25 mg QD, Day 1 column, presented for day 2, n = 8, mean (CV%)): 39.3 (30.4) ng/mL
CL/F [1, 5]: 7.17 (30.1) L/h
Rac(AUC0–24), accumulation ratio based on AUC0–24 [1, 5]: 2.26 (29.2)
Rac(Cmax), accumulation ratio based on Cmax [1, 5]: 1.72 (38.9)
Ctrough ([1]; 25 mg QD, Day 28, n = 8, mean (CV%)): 104 (43.6)^d ng/mL
Ctrough ([1]; 40 mg QD, Day 1 column, presented for day 2, n = 8, mean (CV%)): 108 (88.6) ng/mL
CL/F [1, 6]: 7.20 (42.8) L/h
Ctrough [1, 6]: 162 (41.8) ng/mL
Rac(AUC0–24), accumulation ratio based on AUC0–24 [1, 6]: 1.81 (37.4)
Rac(Cmax), accumulation ratio based on Cmax [1, 6]: 1.43 (25.5)
least squares geometric mean ratio (LSGMR) in AUC0–24 (90% CI) [1, 7]: 1.42 (1.04–1.92)
least squares geometric mean ratio (LSGMR) in Cmax (90% CI) [1, 7]: 1.36 (1.02–1.82)
least squares geometric mean ratio (LSGMR) in AUC0–24 (90% CI) [1, 8]: 1.02 (0.74–1.41)
least squares geometric mean ratio (LSGMR) in Cmax (90% CI) [1, 8]: 1.25 (0.92–1.69)
AUClast / D, ratio with/without CFTR modulator (90% CI) ([1]; Day 1, geometric mean ratio): 1.21 (0.91–1.60)
AUC0–24 / D, geometric mean [1, 9]: 80.7 ng·h/mL/mg
AUClast / D, geometric mean [1, 9]: 80.7 ng·h/mL/mg
Cmax / D, geometric mean [1, 9]: 6.7 ng/mL/mg
AUC0–24 / D, geometric mean [1, 10]: 66.8 ng·h/mL/mg
AUClast / D, geometric mean [1, 10]: 66.8 ng·h/mL/mg
Cmax / D, geometric mean [1, 10]: 6.3 ng/mL/mg
AUC0–24 / D, ratio with/without CFTR modulator (90% CI) ([1]; Day 28, geometric mean ratio): 1.12 (0.82–1.52)
AUC0–24 / D, geometric mean [1, 11]: 134.2 ng·h/mL/mg
AUClast / D, geometric mean [1, 11]: 295.1 ng·h/mL/mg
Cmax / D, geometric mean ([1]; Day 28, with CFTR modulator, n = 17): 10.2^a ng/mL/mg
AUC0–24 / D, geometric mean [1, 12]: 120.2 ng·h/mL/mg
AUClast / D, geometric mean [1, 12]: 271.3 ng·h/mL/mg
Cmax / D, geometric mean [1, 12]: 8.8 ng/mL/mg
inter-participant variability (coefficient of variation) in Cmax, AUC0–24 and t1/2 ([1]; generally within): 15–50%
AUC(0-t) ([1]; human, plasma, oral, 10 mg, 10 mg QD, Day 1, n = 8, mean (CV%), read-out: AUC0–24): 879 ng·h/mL
AUC(0-t) ([1]; human, plasma, oral, 10 mg, 10 mg QD, Day 1, n = 8, mean (CV%), read-out: AUClast): 879 ng·h/mL
Cmax ([1]; human, plasma, oral, 10 mg, 10 mg QD, Day 1, n = 8, mean (CV%), with/without CFTR modulators, read-out: Cmax): 67.3 ng/mL
AUC(0-t) ([1]; human, plasma, oral, 10 mg, 10 mg QD, Day 28, n = 8, mean (CV%), read-out: AUC0–24): 1100 ng·h/mL
AUC(0-t) ([1]; human, plasma, oral, 10 mg, 10 mg QD, Day 28, n = 8, mean (CV%), read-out: AUClast): 2380 ng·h/mL
AUC(0-t) ([1]; human, plasma, oral, 25 mg, 25 mg QD, Day 1, n = 8, mean (CV%), read-out: AUC0–24): 1630 ng·h/mL
AUC(0-t) ([1]; human, plasma, oral, 25 mg, 25 mg QD, Day 1, n = 8, mean (CV%), read-out: AUClast): 1630 ng·h/mL
AUC(0-t) ([1]; human, plasma, oral, 25 mg, 25 mg QD, Day 28, n = 7, mean (CV%), read-out: AUC0–24): 3800 ng·h/mL
AUC(0-t) ([1]; human, plasma, oral, 25 mg, 25 mg QD, Day 28, n = 7, mean (CV%), read-out: AUClast): 8930 ng·h/mL
Cmax ([1]; human, plasma, oral, 25 mg, 25 mg QD, Day 28, n = 7, mean (CV%), read-out: Cmax): 249 ng/mL
AUC(0-t) ([1]; human, plasma, oral, 40 mg, 40 mg QD, Day 1, n = 8, mean (CV%), read-out: AUC0–24): 3690 ng·h/mL
AUC(0-t) ([1]; human, plasma, oral, 40 mg, 40 mg QD, Day 1, n = 8, mean (CV%), read-out: AUClast): 3690 ng·h/mL
Cmax ([1]; human, plasma, oral, 40 mg, 40 mg QD, Day 1, n = 8, mean (CV%), read-out: Cmax): 342 ng/mL
AUC(0-t) ([1]; human, plasma, oral, 40 mg, 40 mg QD, Day 28, n = 8, mean (CV%), read-out: AUC0–24): 6320 ng·h/mL
AUC(0-t) ([1]; human, plasma, oral, 40 mg, 40 mg QD, Day 28, n = 8, mean (CV%), read-out: AUClast): 15300 ng·h/mL
Cmax ([1]; human, plasma, oral, 40 mg, 40 mg QD, Day 28, n = 8, mean (CV%), read-out: Cmax): 490 ng/mL
AUC(0-t) ([1]; human, plasma, oral, day 1, CFTR modulator stratum, 10-40 mg QD, read-out: mean AUC0–24 across brensocatib dose groups): 798 to 4120 ng·h/mL
AUC(0-t) ([1]; human, plasma, oral, day 1, CFTR modulator stratum, 10-40 mg QD, read-out: mean AUClast across brensocatib dose groups): 798 to 4120 ng·h/mL
Cmax ([1]; human, plasma, oral, day 1, CFTR modulator stratum, 10-40 mg QD, read-out: mean Cmax across brensocatib dose groups): 60.9 to 365 ng/mL
AUC(0-t) ([1]; human, plasma, oral, day 1, non-CFTR modulator stratum, 10-40 mg QD, read-out: mean AUC0–24 across brensocatib dose groups): 1120 to 2400 ng·h/mL
AUC(0-t) ([1]; human, plasma, oral, day 1, non-CFTR modulator stratum, 10-40 mg QD, read-out: mean AUClast across brensocatib dose groups): 1120 to 2400 ng·h/mL
Cmax ([1]; human, plasma, oral, day 1, non-CFTR modulator stratum, 10-40 mg QD, read-out: mean Cmax across brensocatib dose groups): 86.4 to 274 ng/mL
AUC(0-t) ([1]; human, plasma, oral, day 28, CFTR modulator stratum, 10-40 mg QD, read-out: mean AUC0–24 across brensocatib dose groups): 1080 to 7360 ng·h/mL
AUC(0-t) ([1]; human, plasma, oral, day 28, CFTR modulator stratum, 10-40 mg QD, read-out: mean AUClast across brensocatib dose groups): 2440 to 17700 ng·h/mL
Cmax ([1]; human, plasma, oral, day 28, CFTR modulator stratum, 10-40 mg QD, read-out: mean Cmax across brensocatib dose groups): 92 to 538 ng/mL
AUC(0-t) ([1]; human, plasma, oral, day 28, non-CFTR modulator stratum, 10-40 mg QD, read-out: mean AUC0–24 across brensocatib dose groups): 1190 to 3740 ng·h/mL
AUC(0-t) ([1]; human, plasma, oral, day 28, non-CFTR modulator stratum, 10-40 mg QD, read-out: mean AUClast across brensocatib dose groups): 2210 to 9540 ng·h/mL
Cmax ([1]; human, plasma, oral, day 28, non-CFTR modulator stratum, 10-40 mg QD, read-out: mean Cmax across brensocatib dose groups): 84.3 to 348 ng/mL
AUC(0-inf) [1, 13]: 2430 ng·h/mL
Vd/F [1, 13]: 423 L
half-life ([1]; human, plasma, oral, 10 mg QD, Day 28, n = 8, mean (CV%), read-out: t1/2 (converted)): 30 h
Tmax ([1]; human, plasma, oral, 10 mg QD, Day 28, n = 8, median (range), read-out: Tmax): 1.9 h
AUC(0-inf) [1, 14]: 9300 ng·h/mL
Vd/F [1, 14]: 332 L
half-life ([1]; human, plasma, oral, 25 mg QD, Day 28, n = 7, mean (CV%), read-out: t1/2 (converted)): 33.1 h
AUC(0-inf) [1, 15]: 16200 ng·h/mL
Vd/F [1, 15]: 398 L
half-life ([1]; human, plasma, oral, 40 mg QD, Day 28, n = 8, mean (CV%), read-out: t1/2 (converted)): 38.5 h
Tmax ([1]; human, plasma, oral, day 1 (after the first dose) and day 28 (steady state), across doses, read-out: median Tmax postdose): 1.5 to 2 h
half-life ([1]; human, plasma, oral, range over CFTR modulator and non-CFTR modulator strata, read-out: elimination t1/2): 24.7 to 49.5 h
PR3, median % reduction relative to baseline ([2]; 10 mg QD, day 29, n = 5): 59.1 (n = 5) %
PR3, median % reduction relative to baseline ([2]; 25 mg QD, day 29, n = 3): 67.1 (n = 3) %
PR3, median % reduction relative to baseline ([2]; 40 mg QD, day 29, n = 1): −17.0 (n = 1) %
substrate status ([3]; CYP3A): substrate
inhibition or induction of CYP3A [3]: not a clinically meaningful inhibitor or inducer
